Results published in US6498158B1, “Il-5 inhibiting 6-azauracil derivatives” (Janssen Pharmaceutica N.V., priority 1998, dated 2002).

Tests used:
IL-5 production = experiment: In vitro inhibition of IL-5 production in human blood; type: cell-based; settings: test dose of 1×10^−6 M, phytohemagglutinin-stimulated human whole blood, ELISA; for % inh. (percentage inhibition of IL-5 production): 48 hours; for inhibition at 1 µM: Homo sapiens, 48 h, read-out: % inh. (percentage inhibition of IL-5 production)
Description: In Vitro Inhibition of IL-5 Production in Human Blood
Human Whole Blood Stimulation
Peripheral blood from healthy male donors was drawn into heparinized syringes (12.5 U heparin/ml). Blood samples were three-fold diluted in RMPI 1640 medium (Life Technologies, Belgium) supplemented with 2 mM L-glutamine, 100 U/ml penicillin and […] streptomycin, and […] fractions were distributed in 24-well multidisc plates. Blood samples were preincubated (60 minutes at 37° C.) in a humidified 6% CO2-atmosphere with 100 ml of drug solvent (final concentration 0.02% dimethylsulfoxide in RPMI 1640) or with 100 ml of an appropriate dose of test compound before being stimulated by the addition of […] of phytohemagglutinin HA17 (Murex, UK) at a final concentration of […]. After 48 hours, cell-free supernatant fluids were collected by centrifugation and stored at −70° C. until tested for the presence of IL-5.
IL-5 measurements were conducted as described in Van Wauwe et al. (1996, Inflamm Res, 45, 357-363) on page 358 using ELISA.
Table 3 lists the percentage inhibition of IL-5 production (column “% inh”) at a test dose of 1×10^−6 M for the compounds of the present invention.

With `Cc1sc(C2(c3c(Cl)cc(-n4ncc(=O)[nH]c4=O)cc3Cl)CCc3ccccc32)nc1-c1ccccc1` (centres unmarked) [Compound 6] the “% inh. (percentage inhibition of IL-5 production)” value (IL-5 production) was 91%.

Compound `N#CC1(c2c(Cl)cc(-n3ncc(=O)[nH]c3=O)cc2Cl)CCc2ccccc21` (centres unmarked) [Compound 1] has an inhibition at 1 µM (IL-5 production) of 70.5%.

For `Cc1sc(C2(c3c(Cl)cc(-n4ncc(=O)[nH]c4=O)cc3Cl)CCc3ccccc32)nc1-c1ccccc1` (centres unmarked) [Compound 4], the inhibition at 1 µM (IL-5 production) was 89.3% and the melting point was 237 °C.

Compound `CCOC(=O)C1(c2c(Cl)cc(-n3ncc(=O)[nH]c3=O)cc2Cl)CCc2ccccc21` (centres unmarked) [Compound 2] has an inhibition at 1 µM (IL-5 production) of 63% and a melting point of 88 °C.

In the case of `Cc1sc(C2(c3c(Cl)cc(-n4ncc(=O)[nH]c4=O)cc3Cl)CCc3ccccc32)nc1-c1ccccc1` (centres unmarked) [Compound 5], the “% inh. (percentage inhibition of IL-5 production)” value (IL-5 production) was 88% and the melting point was 122 °C.
